Measurements published in patent US4748161A, “Triterpenyl esters of organic acids and hypolipidemic agents composed of them” (Amano Pharmaceutical Co., Ltd., priority 1984, dated 1988).
Where two headings read alike, the source gives them in different places.

How the values were obtained:
serum lipids = conditions: 0.2% in high cholesterol diet, cited from earlier work; for TG level lowering: not significant; for TC level lowering: significant
[1] = Body weight of rats in method B; design: species or system male Wistar strain rats; conditions: rat, in vivo
Experimental: (§1) Male Wistar strain rats (100±1 g, each 8 rats were formed into a group except that the control group fed with a hyperlipidemic diet was formed of 16 rats) were used as test animals. A powdery diet (CE-2, supplied by Clea Japan, Inc.) was used as ordinary diet. The hyperlipidemic diet was prepared by fortifying the ordinary diet with cholesterol (1%) and cholic acid (0.5%). Each test compound (1%) for administration was admixed with the hyperlipidemic diet. Each two rats were kept in a cage and given the prescribed diet and water ad libitum. Thus the rats were fed for 4 weeks at a constant temperature of 23±1° C. and a constant R.H. of 55±5%. Finally, the rats were fasted from food except water for 16 hours (from 4 p.m. of the 28th test day to 8 a.m. of the 29th test day), and under anesthesia with pentbarbital sodium (tradename: Nembutal), blood was taken from each rat through the descending abdominal arota. Then, TC, HDL-C, TG, PL, and LPO in the serum were measured in the following manner.

[2] = test system: serum lipids and serum lipid hydroperoxide; assay: Pharmacological test method B for anti-hyperlipidemic activity (serum lipids, 4 weeks feeding); format: in vivo, male Wistar strain rats; design: AI Diff.: unit not given here; conditions: for AI [(TC - HDL-C)/(HDL-C)] / HDL-C in serum / LPO in serum / PL in serum / TC in serum / TG in serum: 1% in hyperlipidemic diet, 4 weeks; for change in vivo at 1 % in diet: Rattus norvegicus, po, 672 h; for change in vivo at 1 % in diet / AI Diff. / HDL-C Diff. / LPO Diff. / PL Diff. / TC % of diff. / TC Diff. / TG Diff.: versus control group; for HDL-C rise compared with normal diet group: versus normal diet group
Experimental: Pharmacological test method B for anti-hyperlipidemic acitivity (the term "method B" was used in the present specification)
as §1
A TC kit-K (supplied by Nippon Shoji Kaisha, Ltd.) was used. The principle of this determination is as follows: The ester of cholesterol in the serum is hydrolyzed with cholesterol-ester hydrolase into free cholesterol and fatty acids. All the free cholesterol is oxidized with cholesterol oxydase to form Δ^4 -cholestenone and hydrogen peroxide. Phenol and 4-aminoantipyrin are oxidatively condensed together by the formed hydrogen peroxide and peroxydase. The produced red quinone coloring matter is measured by colorimetry for absorbance at 500 nm using a spectrophotometer, thereby determining the TC:
The color-developing liquid (3.0 ml) is well mixed with the sample serum (0.02 ml). The mixture once heated at 37° C. for 15 minutes, is measured for absorbance at 500 nm with a spectrophotometer. The found absorbance is denoted by EA. On the other hand, the color-developing liquid (3.0 ml) is well mixed with the standard solution. The mixture is treated and measured for absorbance at 500 nm in the same manner as the above. This found absorbance is denoted by ES. Both EA and ES are determined with reference to the value of the blank test conducted using the color-developing liquid (3.0 ml) alone. [formula]
An HDL-C kit-N (supplied by Nippon Shoji Kaisha, Ltd.) was used. […] (VLDL) and lo density lipoprotein (LDL) in the serum is precipitated by the action of heparin. The precipitate is separated by centrifugation. High density lipoprotein (HDL) is dissolved in the separated supernatant. Esters of cholesterol in this fraction is hydrolyzed with cholesterol-ester hydrolase into free cholesterol and fatty acids. All the free cholesterol is oxidized with cholesterol oxydase to form Δ^4 -cholestenone and hydrogen peroxide. Phenol and 4-aminoantipyrine are oxidatively condensed together by the formed hydrogen peroxide and peroxydase. The produced red quinone coloring matter is measured by colorimetry for absorbance at 500 nm using a spectrophotometer, thereby determining the HDL-C.
A PL kit-K (supplied by Nippon Shoji Kaisha, Ltd.) was used for the determination. Lecithin, sphingomyelin, and lysolecithin are decomposed by phospholipase D into choline and phosphatidic acid, N-acylsphingosyl phosphate, or lysophosphatidic acid, respectively. The resulting choline is quantitatively decomposed by choline oxydase into hydrogen peroxide and betaine. With this hydrogen peroxide, and aid of peroxydase, phenol and 4-aminoantipyrin are condensed into red quinone pigment, then the absorbance at 500 nm of which is measured with a spectrophotometer, thereby determining the PL. […]

Compound	Body weight during feed period, 1st day [1] [g]	Body weight during feed period, 8th day [1] [g]	Body weight during feed period, 15th day [1] [g]	Body weight during feed period, 22nd day [1] [g]	Body weight during feed period, 28th day [1] [g]	Body weight just before blood sampling, 29th day [1] [g]	AI [(TC - HDL-C)/(HDL-C)] [2]	HDL-C in serum [2] [mg/dL]	LPO in serum [2] [nmol/mL]	PL in serum [2] [mg/dL]	TC in serum [2] [mg/dL]	TG in serum [2] [mg/dL]	also measured
COc1cc(/C=C/C(=O)O)ccc1O [ferulic acid, 4-hydroxy-3-methoxycinnamic acid]	–	–	–	–	–	–	–	–	–	–	–	–	TG level lowering (serum lipids): 18.7%; TC level lowering (serum lipids): 10.8%; PL level lowering (serum lipids): scarcely observed
COc1cc(C(=O)O)ccc1O [vanillic acid]	–	–	–	–	–	–	–	–	–	–	–	–	decrease of TC, TG, or PL level (serum lipids): no decrease
O=C(O)/C=C/c1ccc(O)cc1 [p-coumaric acid]	–	–	–	–	–	–	–	–	–	–	–	–	TG level lowering (serum lipids): 19.8%; TC level lowering (serum lipids): 9.4%; PL level lowering (serum lipids): scarcely observed
O=C(O)/C=C/c1ccc(O)c(O)c1 [caffeic acid]	–	–	–	–	–	–	–	–	–	–	–	–	decrease of TC, TG, or PL level (serum lipids): no decrease
CCC(=Cc1ccc(O)c(OC)c1)C(=O)OC1CCC23CC24CCC2(C)C(C(C)CCC=C(C)C)CCC2(C)C4CCC3C1(C)C (stereo not drawn) [Example 120, cycloartenyl ester of 4-hydroxy-3-methoxy-α-ethylcinnamic acid]	105 ± 3.2	144 ± 9.4	191 ± 18.2	242 ± 15.7	272 ± 20.1	258 ± 23.0	7.260	24.6	2.06	105.3	203.2	53.0	change in vivo at 1 % in diet ([2]; read-out: AI % of diff.): -66.6%; change in vivo at 1 % in diet ([2]; read-out: HDL-C % of diff.): 82.2%; change in vivo at 1 % in diet ([2]; read-out: LPO % of diff.): -27%; change in vivo at 1 % in diet ([2]; read-out: PL % of diff.): -24.8%; change in vivo at 1 % in diet ([2]; read-out: TG % of diff.): -6.2%; AI Diff. [2]: -14.5; HDL-C Diff. [2]: +11.1 mg/dl; LPO Diff. [2]: -0.76 nmol/mL; PL Diff. [2]: -34.8 mg/dL; TC % of diff. [2]: -33.9%; TC Diff. [2]: -104.1 mg/dL; TG Diff. [2]: -3.5 mg/dL
CCOc1cc(C=C(C)C(=O)OC2CCC34CC35CCC3(C)C(C(C)CCC(C)=C(C)C)CCC3(C)C5CCC4C2(C)C)ccc1O (stereo not drawn) [Example 140, cyclobranyl ester of 3-ethoxy-4-hydroxy-α-methylcinnamic acid]	105 ± 3.6	147 ± 9.5	194 ± 17.2	246 ± 15.8	273 ± 18.7	261 ± 15.6	2.602	54.8	2.02	98.0	197.4	52.4	change in vivo at 1 % in diet ([2]; read-out: AI % of diff.): -88%; change in vivo at 1 % in diet ([2]; read-out: HDL-C % of diff.): 306%; change in vivo at 1 % in diet ([2]; read-out: LPO % of diff.): -28.4%; change in vivo at 1 % in diet ([2]; read-out: PL % of diff.): -30%; change in vivo at 1 % in diet ([2]; read-out: TG % of diff.): -7.3%; AI Diff. [2]: -19.16; HDL-C Diff. [2]: +41.3 mg/dl; LPO Diff. [2]: -0.80 nmol/mL; PL Diff. [2]: -42.1 mg/dL; TC % of diff. [2]: -35.8%; TC Diff. [2]: -109.9 mg/dL; TG Diff. [2]: -4.1 mg/dL; HDL-C rise compared with normal diet group [2]: remarkable rises
COc1cc(C=CC(=O)OC2CCC34CC35CCC3(C)C(C(C)CCC=C(C)C)CCC3(C)C5CCC4C2(C)C)ccc1N (stereo not shown) [Example 177, Cycloartenyl ester of 4-amino-3-methoxycinnamic acid]	104 ± 3.9	142 ± 9.6	187 ± 12.8	238 ± 21.2	267 ± 25.2	256 ± 27.1	6.554	32.5	2.29	125.8	245.5	63.1	–
CCOc1ccc(N)cc1C=CC(=O)OC1CCC23CC24CCC2(C)C(C(C)CCC=C(C)C)CCC2(C)C4CCC3C1(C)C (stereo not shown) [Example 183, Cycloartenyl ester of 5-amino-2-ethoxycinnamic acid]	105 ± 3.9	142 ± 8.8	189 ± 11.9	239 ± 16.5	268 ± 20.9	257 ± 18.8	7.356	29.2	2.08	125.7	244.0	65.2	–
C=C(CCC(C)C1CCC2(C)C3CCC4C(C)(C)C(OC(=O)C(C)=Cc5cc(N)ccc5OCCC)CCC45CC35CCC12C)C(C)C (stereo not drawn) [Example 197, 24-Methylenecycloartanyl ester of 5-amino-2-propoxy-α-methylcinnamic acid]	104 ± 3.4	142 ± 8.4	188 ± 13.6	239 ± 16.2	268 ± 20.8	257 ± 20.4	7.177	27.1	2.05	115.5	221.6	61.2	–
COc1ccc(N)cc1C(=O)OC1CCC23CC24CCC2(C)C(C(C)CCC(C)=C(C)C)CCC2(C)C4CCC3C1(C)C (stereo not shown) [Example 173, cyclobranyl ester of 5-amino-2-methoxybenzoic acid]	105 ± 3.6	142 ± 10.5	190 ± 18.2	240 ± 23.5	271 ± 24.2	258 ± 23.6	3.671	58.4	2.23	127.2	272.8	65.2	HDL-C rise compared with normal diet group [2]: remarkable rises
CC(C)=CCCC(C)C1CCC2(C)C3CCC4C(C)(C)C(OC(=O)C(C)=Cc5ccc(N)cc5)CCC45CC35CCC12C (stereo not drawn) [Example 205, Cycloartenyl ester of p-amino-α-methylcinnamic acid]	105 ± 3.7	142 ± 9.8	188 ± 13.2	238 ± 19.8	267 ± 20.4	256 ± 19.2	4.144	37.4	2.02	113.1	192.4	60.3	–
CC(=Cc1cccc(N)c1)C(=O)OC1CCC23CC24CCC2(C)C(C(C)CCC(C)=C(C)C)CCC2(C)C4CCC3C1(C)C (stereo not drawn) [Example 212, Cyclobranyl ester of m-amino-α-methylcinnamic acid]	104 ± 3.3	143 ± 9.2	190 ± 18.6	239 ± 15.8	268 ± 21.4	257 ± 19.0	4.242	37.2	2.01	112.9	195.0	59.7	–
